Data: PubChem BioAssay AID248 (DTP/NCI, 2004)
Where “and” joins values, the source holds several entries; their conditions need not be identical. Identical values can stand only once. Inconclusive results and toxic doses are left out. Cut-off read from the data, not from the text of the source: active = T/C of 150% or more; inactive = T/C below 125%.

Tested on: L1210 leukemia ip in BDF1 mice, survival T/C
Assay: NCI In Vivo Anticancer Drug Screen. Data for tumor model L1210 Leukemia (intraperitoneal) in B6D2F1 (BDF1) mice
Conditions: endpoint: mean survival time, higher = longer survival
Outline: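 Ratio derived from survival: compound-dosed mice over vehicle-dosed mice, all bearing a transplantable tumor.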

[1] = dose: 200.0 mg/kg/injection, schedule: Q01DX009 (ip), vehicle: Klucel (hydroxypropylcellulose) (HPC)
[2] = dose: 100.0 mg/kg/injection, schedule: Q01DX009 (ip), vehicle: saline with Tween-80
[3] = dose: 200.0 mg/kg/injection, schedule: Q01DX009 (ip), vehicle: saline with Tween-80
[4] = dose: 400.0 mg/kg/injection, schedule: Q01DX009 (ip), vehicle: saline with Tween-80

Measured: T/C

O=C1c2ccccc2C(=O)C1(Br)C(Cl)c1ccccc1 (centres undefined)
inactive: dose: 100.0 mg/kg/injection, schedule: Q01DX009 (ip), vehicle: Klucel (hydroxypropylcellulose) (HPC) 95 % of control | dose: 100.0 mg/kg/injection, schedule: Q04DX003 (ip), vehicle: Klucel (hydroxypropylcellulose) (HPC) 96 % of control | [1] 101 % of control | dose: 200.0 mg/kg/injection, schedule: Q04DX003 (ip), vehicle: Klucel (hydroxypropylcellulose) (HPC) 103 % of control | dose: 400.0 mg/kg/injection, schedule: Q01DX009 (ip), vehicle: Klucel (hydroxypropylcellulose) (HPC) 97 % of control | dose: 400.0 mg/kg/injection, schedule: Q04DX003 (ip), vehicle: Klucel (hydroxypropylcellulose) (HPC) 97 % of control

OC(/C=C/c1ccccc1)C(O)/C=C/c1ccccc1 (centres undefined)
inactive: [2] 102 % of control | [3] 104 % of control | [4] 111 % of control

COc1ccc(OC)c(/C=C/c2ccc(NC(=O)Nc3ccccc3Cl)cc2)c1
inactive: dose: 12.5 mg/kg/injection, schedule: Q01DX009 (ip), vehicle: Klucel (hydroxypropylcellulose) (HPC) 93 % of control | dose: 25.0 mg/kg/injection, schedule: Q01DX009 (ip), vehicle: Klucel (hydroxypropylcellulose) (HPC) 89 % of control | dose: 50.0 mg/kg/injection, schedule: Q01DX009 (ip), vehicle: Klucel (hydroxypropylcellulose) (HPC) 91 % of control | dose: 100.0 mg/kg/injection, schedule: Q04DX002 (ip), vehicle: Klucel (hydroxypropylcellulose) (HPC) 88 % of control | [1] 93 % of control and 86 % of control | dose: 200.0 mg/kg/injection, schedule: Q04DX002 (ip), vehicle: Klucel (hydroxypropylcellulose) (HPC) 88 % of control | dose: 300.0 mg/kg/injection, schedule: Q01DX009 (ip), vehicle: Klucel (hydroxypropylcellulose) (HPC) 106 % of control and 89 % of control

COc1ccc(OC)c(NC(=O)OCCOc2ccccc2)c1
inactive: [2] 104 % of control | [3] 107 % of control | [4] 100 % of control

CC12CCC(CC(=O)O1)C2(C)C (centres undefined)
inactive: dose: 75.0 mg/kg/injection, schedule: Q01DX001 (ip), vehicle: saline 114 % of control

Cc1cc([N+](=O)[O-])cc(C)c1N=CN(C)C
inactive: dose: 50.0 mg/kg/injection, schedule: Q01DX001 (ip), vehicle: saline 107 % of control | dose: 100.0 mg/kg/injection, schedule: Q01DX001 (ip), vehicle: saline 105 % of control | dose: 200.0 mg/kg/injection, schedule: Q01DX001 (ip), vehicle: saline 122 % of control | dose: 400.0 mg/kg/injection, schedule: Q01DX001 (ip), vehicle: saline 104 % of control
